#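 All cell lines were grown in 96-well plates and treated with compound for 48 hours. At the TGI there is no net growth.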
# What was measured:
# Test in all cases: DTP human tumour cell line panel, 48 h
# RXF 393 renal = test system: RXF 393 renal
# NCI-H23 lung = test system: NCI-H23 lung
# MALME-3M melanoma = test system: MALME-3M melanoma
# PC-3 prostate = test system: PC-3 prostate
# MDA-MB-435 = test system: MDA-MB-435
# MOLT-4 leukemia = test system: MOLT-4 leukemia
# ACHN renal = test system: ACHN renal
# M14 melanoma = test system: M14 melanoma
# HOP-62 NSCLC = test system: HOP-62 NSCLC
# HL-60(TB) leukemia = test system: HL-60(TB) leukemia
# IGROV1 ovarian = test system: IGROV1 ovarian
# UACC-257 melanoma = test system: UACC-257 melanoma
# SK-MEL-5 melanoma = test system: SK-MEL-5 melanoma
# SK-MEL-28 melanoma = test system: SK-MEL-28 melanoma
# BT-549 breast = test system: BT-549 breast
# EKVX NSCLC = test system: EKVX NSCLC
# TK-10 renal = test system: TK-10 renal
# SF-268 CNS = test system: SF-268 CNS
# COLO 205 colon = test system: COLO 205 colon
# NCI-H226 lung = test system: NCI-H226 lung
# T-47D breast = test system: T-47D breast
# NCI-H460 lung = test system: NCI-H460 lung
# SN12C renal = test system: SN12C renal
# CAKI-1 renal = test system: CAKI-1 renal
# LOX IMVI melanoma = test system: LOX IMVI melanoma
# 786-0 renal = test system: 786-0 renal
# HT29 colon = test system: HT29 colon
# MDA-MB-231 breast = test system: MDA-MB-231 breast
# SNB-19 CNS = test system: SNB-19 CNS
# MDA-N = test system: MDA-N
# A498 renal = test system: A498 renal
# MCF7 breast = test system: MCF7 breast
# U251 CNS = test system: U251 CNS
# OVCAR-3 ovarian = test system: OVCAR-3 ovarian
# NCI/ADR-RES ovarian = test system: NCI/ADR-RES ovarian
# DU-145 prostate = test system: DU-145 prostate
# OVCAR-5 ovarian = test system: OVCAR-5 ovarian
# KM12 colon = test system: KM12 colon
# OVCAR-4 ovarian = test system: OVCAR-4 ovarian
# SW-620 colon = test system: SW-620 colon
# SF-295 CNS = test system: SF-295 CNS
# UACC-62 melanoma = test system: UACC-62 melanoma
# HCT-116 colon = test system: HCT-116 colon
# HS 578T breast = test system: HS 578T breast
# NCI-H522 lung = test system: NCI-H522 lung
# A549 NSCLC = test system: A549 NSCLC
# RPMI-8226 leukemia = test system: RPMI-8226 leukemia
# K-562 leukemia = test system: K-562 leukemia
# CCRF-CEM leukemia = test system: CCRF-CEM leukemia
# SK-MEL-2 melanoma = test system: SK-MEL-2 melanoma
# OVCAR-8 ovarian = test system: OVCAR-8 ovarian
# HCT-15 colon = test system: HCT-15 colon
# UO-31 renal = test system: UO-31 renal
# SNB-75 CNS = test system: SNB-75 CNS
# SF-539 CNS = test system: SF-539 CNS
# SK-OV-3 ovarian = test system: SK-OV-3 ovarian
# HOP-92 NSCLC = test system: HOP-92 NSCLC
# HCC-2998 colon = test system: HCC-2998 colon
compound,measurement,setting,value
CCc1n[nH]c(=O)n1/N=C/c1ccc(/C=N/n2c(CC)n[nH]c2=O)cc1,TGI,RXF 393 renal,> 100 µM
same,TGI,NCI-H23 lung,> 100 µM
same,TGI,MALME-3M melanoma,> 100 µM
same,TGI,PC-3 prostate,> 100 µM
same,TGI,MDA-MB-435,> 100 µM
same,TGI,MOLT-4 leukemia,> 100 µM
same,TGI,ACHN renal,> 100 µM
same,TGI,M14 melanoma,> 100 µM
same,TGI,HOP-62 NSCLC,> 100 µM
same,TGI,HL-60(TB) leukemia,> 100 µM
same,TGI,IGROV1 ovarian,> 100 µM
same,TGI,UACC-257 melanoma,> 100 µM
same,TGI,SK-MEL-5 melanoma,> 100 µM
same,TGI,SK-MEL-28 melanoma,> 100 µM
same,TGI,BT-549 breast,> 100 µM
same,TGI,EKVX NSCLC,> 100 µM
same,TGI,TK-10 renal,> 100 µM
same,TGI,SF-268 CNS,> 100 µM
same,TGI,COLO 205 colon,> 100 µM
same,TGI,NCI-H226 lung,> 100 µM
same,TGI,T-47D breast,> 100 µM
same,TGI,NCI-H460 lung,> 100 µM
same,TGI,SN12C renal,> 100 µM
same,TGI,CAKI-1 renal,> 100 µM
same,TGI,LOX IMVI melanoma,> 100 µM
same,TGI,786-0 renal,> 100 µM
same,TGI,HT29 colon,> 100 µM
same,TGI,MDA-MB-231 breast,> 100 µM
same,TGI,SNB-19 CNS,> 100 µM
same,TGI,MDA-N,> 100 µM
same,TGI,A498 renal,> 100 µM
same,TGI,MCF7 breast,> 100 µM
same,TGI,U251 CNS,> 100 µM
same,TGI,OVCAR-3 ovarian,> 100 µM
same,TGI,NCI/ADR-RES ovarian,> 100 µM
same,TGI,DU-145 prostate,> 100 µM
same,TGI,OVCAR-5 ovarian,> 100 µM
same,TGI,KM12 colon,> 100 µM
same,TGI,OVCAR-4 ovarian,> 100 µM
same,TGI,SW-620 colon,> 100 µM
same,TGI,SF-295 CNS,> 100 µM
same,TGI,UACC-62 melanoma,> 100 µM
same,TGI,HCT-116 colon,> 100 µM
same,TGI,HS 578T breast,> 100 µM
same,TGI,NCI-H522 lung,> 100 µM
same,TGI,A549 NSCLC,> 100 µM
same,TGI,RPMI-8226 leukemia,> 100 µM
same,TGI,K-562 leukemia,> 100 µM
same,TGI,CCRF-CEM leukemia,> 100 µM
same,TGI,SK-MEL-2 melanoma,> 100 µM
same,TGI,OVCAR-8 ovarian,> 100 µM
same,TGI,HCT-15 colon,> 100 µM
same,TGI,UO-31 renal,> 100 µM
Nc1cccc2nnccc12,TGI,RXF 393 renal,> 100 µM
same,TGI,NCI-H23 lung,> 100 µM
same,TGI,MALME-3M melanoma,> 100 µM
same,TGI,PC-3 prostate,> 100 µM
same,TGI,MDA-MB-435,> 100 µM
same,TGI,ACHN renal,> 100 µM
same,TGI,M14 melanoma,> 100 µM
same,TGI,HL-60(TB) leukemia,> 100 µM
same,TGI,IGROV1 ovarian,> 100 µM
same,TGI,UACC-257 melanoma,> 100 µM
same,TGI,SK-MEL-5 melanoma,> 100 µM
same,TGI,BT-549 breast,> 100 µM
same,TGI,EKVX NSCLC,> 100 µM
same,TGI,TK-10 renal,> 100 µM
same,TGI,SF-268 CNS,> 100 µM
same,TGI,SNB-75 CNS,> 100 µM
same,TGI,SF-539 CNS,> 100 µM
same,TGI,COLO 205 colon,> 100 µM
same,TGI,NCI-H226 lung,> 100 µM
same,TGI,T-47D breast,> 100 µM
same,TGI,NCI-H460 lung,> 100 µM
same,TGI,SN12C renal,> 100 µM
same,TGI,CAKI-1 renal,> 100 µM
same,TGI,786-0 renal,> 100 µM
same,TGI,HT29 colon,> 100 µM
same,TGI,MDA-MB-231 breast,> 100 µM
same,TGI,SK-OV-3 ovarian,> 100 µM
same,TGI,SNB-19 CNS,> 100 µM
same,TGI,MDA-N,> 100 µM
same,TGI,MCF7 breast,> 100 µM
same,TGI,U251 CNS,> 100 µM
same,TGI,NCI/ADR-RES ovarian,> 100 µM
same,TGI,DU-145 prostate,> 100 µM
same,TGI,OVCAR-5 ovarian,> 100 µM
same,TGI,KM12 colon,> 100 µM
same,TGI,SW-620 colon,> 100 µM
same,TGI,SF-295 CNS,> 100 µM
same,TGI,UACC-62 melanoma,> 100 µM
same,TGI,HCT-116 colon,> 100 µM
same,TGI,HOP-92 NSCLC,> 100 µM
same,TGI,HS 578T breast,> 100 µM
same,TGI,NCI-H522 lung,> 100 µM
same,TGI,A549 NSCLC,> 100 µM
same,TGI,RPMI-8226 leukemia,> 100 µM
same,TGI,CCRF-CEM leukemia,> 100 µM
same,TGI,SK-MEL-2 melanoma,> 100 µM
same,TGI,OVCAR-8 ovarian,> 100 µM
same,TGI,HCT-15 colon,> 100 µM
same,TGI,UO-31 renal,> 100 µM
Cc1cc2c(O)c(c1)CN(Cc1ccccc1)Cc1cc(C)cc(c1O)CN(Cc1ccccc1)Cc1cc(C)cc(c1O)CN(Cc1ccccc1)C2,TGI,RXF 393 renal,> 100 µM
same,TGI,NCI-H23 lung,> 100 µM
same,TGI,MALME-3M melanoma,> 100 µM
same,TGI,PC-3 prostate,> 100 µM
same,TGI,MDA-MB-435,> 100 µM
same,TGI,MOLT-4 leukemia,> 100 µM
same,TGI,ACHN renal,> 100 µM
same,TGI,M14 melanoma,> 100 µM
same,TGI,HOP-62 NSCLC,> 100 µM
same,TGI,HL-60(TB) leukemia,> 100 µM
same,TGI,IGROV1 ovarian,> 100 µM
same,TGI,UACC-257 melanoma,> 100 µM
same,TGI,SK-MEL-5 melanoma,> 100 µM
same,TGI,SK-MEL-28 melanoma,> 100 µM
same,TGI,BT-549 breast,> 100 µM
same,TGI,TK-10 renal,> 100 µM
same,TGI,SF-268 CNS,> 100 µM
same,TGI,SNB-75 CNS,> 100 µM
same,TGI,SF-539 CNS,> 100 µM
same,TGI,COLO 205 colon,> 100 µM
same,TGI,NCI-H226 lung,> 100 µM
same,TGI,T-47D breast,> 100 µM
same,TGI,NCI-H460 lung,> 100 µM
same,TGI,SN12C renal,> 100 µM
same,TGI,CAKI-1 renal,> 100 µM
same,TGI,LOX IMVI melanoma,> 100 µM
same,TGI,786-0 renal,> 100 µM
same,TGI,HT29 colon,> 100 µM
same,TGI,MDA-MB-231 breast,> 100 µM
same,TGI,SK-OV-3 ovarian,> 100 µM
same,TGI,SNB-19 CNS,> 100 µM
same,TGI,MDA-N,> 100 µM
same,TGI,A498 renal,> 100 µM
same,TGI,MCF7 breast,> 100 µM
same,TGI,U251 CNS,> 100 µM
same,TGI,OVCAR-3 ovarian,> 100 µM
same,TGI,NCI/ADR-RES ovarian,> 100 µM
same,TGI,DU-145 prostate,> 100 µM
same,TGI,OVCAR-5 ovarian,> 100 µM
same,TGI,KM12 colon,> 100 µM
same,TGI,OVCAR-4 ovarian,> 100 µM
same,TGI,SW-620 colon,> 100 µM
same,TGI,SF-295 CNS,> 100 µM
same,TGI,UACC-62 melanoma,> 100 µM
same,TGI,HCT-116 colon,> 100 µM
same,TGI,HS 578T breast,> 100 µM
same,TGI,NCI-H522 lung,> 100 µM
same,TGI,A549 NSCLC,> 100 µM
same,TGI,RPMI-8226 leukemia,> 100 µM
same,TGI,K-562 leukemia,> 100 µM
same,TGI,HCC-2998 colon,> 100 µM
same,TGI,CCRF-CEM leukemia,> 100 µM
same,TGI,SK-MEL-2 melanoma,95.2 µM
same,TGI,OVCAR-8 ovarian,> 100 µM
same,TGI,HCT-15 colon,> 100 µM
same,TGI,UO-31 renal,> 100 µM
